According to patent US10428111B2, “Cancer targeting by anti-EGFR peptides and applications thereof” (priority 2015, dated 2019):
Like-named read-outs stand apart in the source and are kept apart here.

Assays:
[1] = test system: SKBR3 (HER2-overexpressing cells); assay: MTT cytotoxicity study; assay type: cell-based, human; settings: then 48 hours, mean ± SD, n = 3
Experimental: (§1) The anti-proliferative effects of liposomal preparations containing DOX were assessed using MTT assay. SK-BR-3, TUBO, and MDA-MB-231 cells were seeded at 7000, 10,000, 2500 cells/well in 96 well plates. After an overnight incubation, the medium was replaced with FCS free medium containing 1:2 serial dilutions of liposomal DOX or free DOX. After 3 hours and 6 hours' incubation times at 37° C., cells were washed with pre-warmed complete culture media and re-incubated further for 48 hours at 37° C. in their complete culture medium. Then, the medium was replaced with 100 μL of freshly prepared MTT (10% v/v, 5 mg/mL) and FCS free culture medium. Finally, after 4 hours of incubation at 37° C., the absorbance at 545 nm was recorded. Relative cell death (R) was calculated as follows: R=1−[(Atest−Ablank)/(Acontrol−Ablank)] Equation (1)
(§2) In the above Equation (1), Atest is the absorbance values of the cells treated with the test solutions and Acontrol is the absorbance values of the culture medium (negative control). Ablank is the absorbance of MTT solution added in cell free wells. The IC50 was then calculated using CalcuSyn version 2 software (BIOSOFT, UK).

[2] = test system: TUBO (HER2-overexpressing cells); assay: MTT cytotoxicity study; assay type: cell-based, mice; settings: then 48 hours, mean ± SD, n = 3
Experimental: as §1, §2

[3] = test system: MDA-MB-231 (HER2-Low expressing cells); assay: MTT cytotoxicity study; assay type: cell-based; settings: then 48 hours, mean ± SD, n = 3
Experimental: as §1, §2

[4] = Bio-distribution study (DOX in plasma, tumor and tissues); assay type: in vivo, BALB/c mice; settings: 15 mg/kg as DOX; after 3 hours
Experimental: Two weeks after tumor inoculation, when the tumors were approximately 5 mm wide, mice (3 per group) were injected via the tail vain with either 15 mg/kg of doxorubicin as Caelyx® or targeted liposomes. Control mice received 200 μL of dextrose 5%. Blood samples were collected via retro orbital bleeding (approx. 0.5 mL) 3, 6, and 12 hours after the dosing. After 24 hours, the group was sacrificed for tissue collection. Blood samples were collected by heart puncture, and the whole tumor, kidneys, spleen, heart, lungs as well as a portion of liver and muscle were dissected, weighted and placed in a 2 mL Polypropylene Microvials containing 1 mL of acidified isopropanol and zirconia bead sand homogenized by Mini-Beadbeater-1. The blood was allowed to coagulate at 4° C. and then centrifuged for 10 min at 14,000 rpm. Then, serum was collected and an adequate volume was diluted in 1 mL acidified isopropanol. The homogenized tissue samples and the sera were stored overnight at 4° C. to extract the drug. The samples were then centrifuged and the supernatant was assayed for DOX concentration spectrofluorimetrically (Ex:470 nm, Em:590 nm). The calibration curve was prepared using serial dilutions of Doxil the tissue and sera extracts of the control mice. […]

[5] = test system: TUBO breast carcinoma tumor; assay: Chemotherapy study in tumor-bearing mice; settings: for CR (complete regression) / TFS (tumor free survivor): number of animals of n = 4-5; for TGD (Tumor growth delay): versus dextrose 5% control
Experimental: Initially, on day 0, female BALB/c mice aged 4-6 weeks were given subcutaneous injections of TUBO tumor cells (5×10^5 cells per mouse) in the right flank. On day 11, post-tumoring mice with palpable tumor received 0.2 mL via a single tail vein injection of either dextrose 5% solution as negative control or doxorubicin encapsulated in liposomes (15 mg/kg). Mice were weighed and tumor sizes were monitored during the experimental period. The tumor volume was estimated by measuring three orthogonal diameters (a, b, and c) with calipers; the volume was calculated as (a×b×c)×0.5 mm^3. Tumors that were just palpable were defined as 1 mm^3. To survival study, the mice were monitored for up to 120 days post-tumoring or until one of the following conditions for euthanasia was met: (1) their body weight dropped below 20% of their initial mass; (2) their tumor was greater than 2.0 cm across in any dimension; (3) they became lethargic or sick and unable to feed; or (4) they were found dead. The time to reach the endpoint (TTE) for each mouse was calculated from the equation of the line obtained by exponential regression of the tumor growth curve. Subsequently, the percent of tumor growth delay (% TGD) were calculated based on the difference between the mean TTE of treatment group (T) and theme an TTE of the control group (C) (% TGD=[(T−C)/C]×100). […] In a partial regression response, the tumor volume is less than or equal to 50% of its day 1 volume for three consecutive measurements during the course of the study, and greater than or equal to 13.5 mm^3 for one or more of these three measurements. In a complete regression response, the tumor volume is less than 13.5 mm^3 for three consecutive measurements during the course of the study. An animal with a complete regression response at the end of the study was additionally classified as a tumor-free survivor.
The investigation to get the above-mentioned results took place in female BALB/c mice earing TUBO breast carcinoma tumor after administration of a single dose of 15 mg/kg liposome loaded by doxorubicin (DOX) or dextrose 5% on day 11 after tumor inoculation.

[6] = Table 3B (719W), liposomes 15 mg/kg, DOX 10 mg/kg

## COc1cccc2c1C(=O)c1c(O)c3c(c(O)c1C2=O)C[C@@](O)(C(=O)CO)C[C@@H]3O[C@H]1C[C@H](N)[C@H](O)[C@H](C)O1 [DOX, doxorubicin]
[1]; Table 2A (420W), 3 hours incubation, read-out: IC50 SKBR3 3 hours
  IC50: 620 ± 20 nM
[1]; Table 2A (420W), 6 hours incubation, read-out: IC50 SKBR3 6 hours
  IC50: 390 ± 50 nM
[1]; Table 2B (719W), 3 h incubation, read-out: IC50 SKBR3 3 h
  IC50: 560 ± 20 nM
[1]; Table 2B (719W), 6 h incubation, read-out: IC50 SKBR3 6 h
  IC50: 240 ± 10 nM
[2]; Table 2A (420W), 3 hours incubation, read-out: IC50 TUBO 3 hours
  IC50: 150 ± 70 nM
[2]; Table 2A (420W), 6 hours incubation, read-out: IC50 TUBO 6 hours
  IC50: 90 ± 10 nM
[2]; Table 2B (719W), 3 h incubation, read-out: IC50 TUBO 3 h
  IC50: 150 ± 10 nM
[2]; Table 2B (719W), 6 h incubation, read-out: IC50 TUBO 6 h
  IC50: 90 ± 30 nM
[3]; Table 2A (420W), 3 hours incubation, read-out: IC50 MDA-MB-231 3 hours
  IC50: 600 ± 50 nM
[3]; Table 2A (420W), 6 hours incubation, read-out: IC50 MDA-MB-231 6 hours
  IC50: 260 ± 10 nM
[3]; Table 2B (719W), 3 h incubation, read-out: IC50 MDA-MB-231 3 h
  IC50: 600 ± 90 nM
[3]; Table 2B (719W), 6 h incubation, read-out: IC50 MDA-MB-231 6 h
  IC50: 260 ± 40 nM
[4]
  plasma concentration of DOX after intravenous injection: below the detection limit
[5]; Table 3A (420W)
  CR (complete regression): 0
  TFS (tumor free survivor): 0
  TGD (Tumor growth delay): 18%
[5]; Table 3A (420W), single i.v. dose on day 11, monitored up to 120 days
  TTE (time to reach the end point): 70.4 days
[5]; Table 3A (420W), single i.v. dose on day 11 after tumor inoculation, monitored up to 120 days
  MST (Median survival Time): 69.2 days
[5]; [6]
  TTE (time to reach the end point): 70.4 days
  CR (complete regression): 0
  TFS (tumor free survivor): 0
  TGD (Tumor growth delay): 18%
[5]; Table 3B (719W), single i.v. dose, liposomes 15 mg/kg, DOX 10 mg/kg, up to 120 days
  MST (Median survival Time): 69.2 days
